Counter-ions that a name gives are not always drawn.
Assays:
hIL-6 mRNA = experiment: Inhibition of hIL-6 mRNA transcription in LPS-stimulated U937 macrophages; assay type: cell-based, human; design: key: Active: Compounds with an IC50 value less than 30 μM are deemed to be active; conditions: U937 differentiated into macrophages, 1 h pretreatment, lipopolysaccharide 3 h
Description: In this example, hIL-6 mRNA in tissue culture cells was quantitated to measure the transcriptional inhibition of hIL-6 when treated with a compound of the present disclosure.
A human leukemic monocyte lymphoma cell line (U937) was plated (3.2×10^4 cells per well) in a 96-well plate in 100 μL RPMI-1640 containing 10% FBS and penicillin/streptomycin, and differentiated into macrophages for 3 days in 60 ng/mL PMA ([…]) at 37° C. in 5% CO2 prior to the addition of the compound of interest. The cells were pretreated for 1 h with the test compound prior to stimulation with […] lipopolysaccharide from Escherichia coli. The cells were incubated at 37° C. for 3 h before the cells were harvested. At time of harvest, the spent media was removed from the cells and the cells were rinsed in 200 μL PBS. Cell lysis solution (70 μL) was added the cells in each well and incubated for 5-10 min at room temperature, to allow for complete cell lysis and detachment. mRNA was then prepared using the “mRNA Catcher PLUS plate” (Invitrogen), according to the protocol supplied. After the last wash, as much wash buffer as possible was aspirated without allowing the wells to dry. Elution buffer (E3, 70 μL) was then added to each well. mRNA was then eluted by incubating the mRNA Catcher PLUS plate with Elution Buffer for 5 min at 68° C. and then immediately placing the plate on ice.
The eluted mRNA isolated was then used in a one-step quantitative real-time PCR reaction, using components of the Ultra Sense Kit together with Applied Biosystems primer-probe mixes. Real-time PCR data was analyzed, normalizing the Ct values for hIL-6 to an internal control, prior to determining the fold induction of each unknown sample, relative to the control.

Brd4 bromodomain 1 = target: T1, Brd4 bromodomain 1 (Homo sapiens, UniProt O60885); experiment: Inhibition of tetra-acetylated histone H4 binding to BET bromodomains (TR-FRET); design: key: Active: Compounds with an IC50 value less than 30 μM were deemed to be active.; Not Active: Compounds with an IC50 value less than 30 μM were deemed to be active; conditions: first bromodomain of Brd4, tetra-acetylated histone H4 peptide
T1 construct: made in house; host or cells: E. coli BL21(DE3)
Description: Proteins were cloned and overexpressed with a N-terminal 6×His tag, then purified by nickel affinity followed by size exclusion chromatography. Briefly, E. coli BL21(DE3) cells were transformed with a recombinant expression vector encoding N-terminally Nickel affinity tagged bromodomains from Brd2, Brd3, Brd4. Cell cultures were incubated at 37° C. with shaking to the appropriate density and induced overnight with IPTG. The supernatant of lysed cells was loaded onto Ni-IDA column for purification. Eluted protein was pooled, concentrated and further purified by size exclusion chromatography. Fractions representing monomeric protein were pooled, concentrated, aliquoted, and frozen at −80° C. for use in subsequent experiments.
Binding of tetra-acetylated histone H4 and BET bromodomains was confirmed by a Time Resolved Fluorescence Resonance Energy Transfer (TR-FRET) method. N-terminally His-tagged bromodomains (200 nM) and biotinylated tetra-acetylated histone H4 peptide (25-50 nM, Millipore) were incubated in the presence of Europium Cryptate-labeled streptavidin (Cisbio Cat. #610SAKLB) and XL665-labeled monoclonal anti-His antibody (Cisbio Cat. #61HISXLB) in a white 96 well microtiter plate (Greiner). For inhibition assays, serially diluted test compound was added to these reactions in a 0.2% final concentration of DMSO. Final buffer concentrations were 30 mM HEPES pH 7.4, 30 mM NaCl, 0.3 mM CHAPS, 20 mM phosphate pH 7.0, 320 mM KF, 0.08% BSA). After 2 hours incubation at room temperature, the fluorescence by FRET was measured at 665 and 620 nm by a SynergyH4 plate reader (Biotek). Illustrative results with the first bromodomain of Brd4 are shown below (Table 1). The binding inhibitory activity was shown by a decrease in 665 nm fluorescence relative to 620 nm. IC50 values were determined from a dose response curve.

c-myc = experiment: Inhibition of c-myc expression in cancer cell lines (mRNA, real-time PCR); assay type: cell-based; design: key: Active: Compounds with an IC50 value less than 30 μM were deemed to be active; conditions: Human AML MV4-11 cells, 3 hours
Description: MV4-11 cells (2.5×10^4 cells) were plated in 96 well U-bottom plates with test compound or DMSO (0.1%), and incubated for 3 hours at 37° C. Cells were then harvested by centrifugation, lysed, and mRNA was isolated using the mRNA catcher plus kit (Invitrogen). Reverse transcription of the mRNA and duplex amplification of the c-myc and cyclophilin cDNAs was performed using the RNA Ultrasense kit (Invitrogen) and a ViiA7 real-time PCR machine (Applied Biosystems). IC50 values were determined from a dose response curve.

Human AML MV-4-11 cells = experiment: Inhibition of cell proliferation in cancer cell lines (CellTiter Aqueous One); assay type: cell-based; design: key: Active: Compounds with an IC50 value less than 30 μM were deemed to be active.; Not Active: Compounds with an IC50 value less than 30 μM were deemed to be active; conditions: 72 hours
Description: MV4-11 cells: 96-well plates were seeded with 5×10^4 cells per well of exponentially growing human AML MV-4-11 (CRL-9591) cells and immediately treated with two-fold dilutions of test compounds, ranging from 30 μM to 0.2 μM. Triplicate wells were used for each concentration, as well as a media only and three DMSO control wells. The cells and compounds were incubated at 37° C., 5% CO2 for 72 hours before adding 20 μL of the CellTiter Aqueous One Solution (Promega) to each well and incubating at 37° C., 5% CO2 for an additional 3-4 hours. The absorbance was taken at 490 nm in a spectrophotometer and the percentage of proliferation relative to DMSO-treated cells was calculated after correction from the blank well. IC50 were calculated using the GraphPad Prism software.

SMILES	IL-6 activity (IC50 < 30 μM) (hIL-6 mRNA)	FRET activity (IC50 < 30 μM) (Brd4 bromodomain 1)	c-myc activity (IC50 < 30 μM) (c-myc)	cell proliferation activity (IC50 < 30 μM) (Human AML MV-4-11 cells)	melting point [°C]
COc1cc(OC)c2c(=O)[nH]c(-c3ccc(OCC[N+]4([O-])CCCC4)c(-c4ccc(S(C)(=O)=O)cc4)n3)nc2c1 [Example 63, 1-(2-((6-(5,7-Dimethoxy-4-oxo-3,4-dihydroquinazolin-2-yl)-2-(4-(methylsulfonyl)phenyl)pyridin-3-yl)oxy)ethyl)pyrrolidine 1-oxide]	Active	Active	Not Active	Not Active	167 to 170
COc1cc(OC)c2c(=O)[nH]c(-c3ccc(OCCO)c(-c4ccccc4)n3)nc2c1 [Example 21, 2-(5-(2-Hydroxyethoxy)-6-phenylpyridin-2-yl)-5,7-dimethoxyquinazolin-4(3H)-one]	Active	Active	–	–	240 to 242
C[S+]([O-])c1ccc(-c2nc(-c3nc4ccccc4c(=O)[nH]3)ccc2OCCO)cc1 (stereo not drawn) [Example 61, 2-(5-(2-Hydroxyethoxy)-6-(4-(methylsulfinyl)phenyl)pyridin-2-yl)quinazolin-4(3H)-one]	–	Active	–	–	261 to 262
COc1cccc2nc(-c3ccc(OCCO)c(-c4ccc(S(C)(=O)=O)cc4)n3)[nH]c(=O)c12 [Example 62, 2-(5-(2-Hydroxyethoxy)-6-(4-(methylsulfonyl)phenyl)pyridin-2-yl)-5-methoxyquinazolin-4(3H)-one]	Active	Active	–	–	> 300
COc1cc(OC)c2c(=O)[nH]c(-c3ccc(OCCNC(C)C)c(-c4ccccc4S(C)(=O)=O)n3)nc2c1 [Example 32, 2-(5-(2-(Isopropylamino)ethoxy)-6-(2-(methylsulfonyl)phenyl)pyridin-2-yl)-5,7-dimethoxyquinazolin-4(3H)-one]	Not Active	Active	–	–	178 to 180
COc1cc(OC)c2c(=O)[nH]c(-c3ccc(OCCNC(C)C)c(-c4cccc(S(C)(=O)=O)c4)n3)nc2c1 [Example 33, 2-(5-(2-(Isopropylamino)ethoxy)-6-(3-(methylsulfonyl)phenyl)pyridin-2-yl)-5,7-dimethoxyquinazolin-4(3H)-one]	Not Active	Active	–	–	222 to 223
COc1ccc(-c2nc3cccc(OC)c3c(=O)[nH]2)nc1-c1ccc([S+](C)[O-])cc1 (stereo not drawn) [Example 57, 5-Methoxy-2-(5-methoxy-6-(4-(methylsulfinyl)phenyl)pyridin-2-yl)quinazolin-4(3H)-one]	Active	Active	Not Active	Not Active	308 to 310
COc1cc(OC)c2c(=O)[nH]c(-c3cccc(-c4ccc([S+](C)[O-])s4)c3)nc2c1 (stereo not drawn) [Example 51, 5,7-Dimethoxy-2-(3-(5-(methylsulfinyl)thiophen-2-yl)phenyl)quinazolin-4(3H)-one]	Active	Active	Not Active	Not Active	289 to 290
COc1cc(OC)c2c(=O)[nH]c(-c3cccc(-c4ccc([S+](C)[O-])cc4)c3)nc2c1 (stereo not drawn) [Example 47, 5,7-Dimethoxy-2-(4′-(methylsulfinyl)-[1,1′-biphenyl]-3-yl)quinazolin-4(3H)-one]	Not Active	Not Active	–	–	> 300
CCS(=O)(=O)c1ccc(-c2nc(-c3nc4cc(OC)cc(OC)c4c(=O)[nH]3)ccc2OCCO)cc1 [Example 34, 2-(6-(4-(Ethylsulfonyl)phenyl)-5-(2-hydroxyethoxy)pyridin-2-yl)-5,7-dimethoxyquinazolin-4(3H)-one]	Active	Active	Active	Active	282 to 284
COc1cc(OC)c2c(=O)[nH]c(-c3cc(-c4ccc([S+](C)[O-])cc4)cs3)nc2c1 (stereo not drawn) [Example 48, 5,7-Dimethoxy-2-(4-(4-(methylsulfinyl)phenyl)thiophen-2-yl)quinazolin-4(3H)-one]	Active	Not Active	Not Active	Not Active	> 300
CCS(=O)(=O)c1ccc(-c2nc(-c3nc4cc(OC)cc(OC)c4c(=O)[nH]3)ccc2OCCN2CCCC2)cc1 (as salt: hydrochloride) [Example 42, 2-(6-(4-(Ethylsulfonyl)phenyl)-5-(2-(pyrrolidin-1-yl)ethoxy)pyridin-2-yl)-5,7-dimethoxyquinazolin-4(3H)-one]	–	–	–	–	235 to 236
CC(C)NCCOc1ccc(-c2nc3ccccc3c(=O)[nH]2)nc1-c1ccc(S(C)(=O)=O)cc1 [Example 68, 2-(5-(2-(Isopropylamino)ethoxy)-6-(4-(methylsulfonyl)phenyl)pyridin-2-yl)quinazolin-4(3H)-one]	–	Active	–	–	188 to 189
COc1cc(OC)c2c(=O)[nH]c(-c3ccc(OCCO)c(-c4cccc(S(C)(=O)=O)c4)n3)nc2c1 (as salt: methanesulfonate) [Example 36, 2-(5-(2-Hydroxyethoxy)-6-(3-(methylsulfonyl)phenyl)pyridin-2-yl)-5,7-dimethoxyquinazolin-4(3H)-one methanesulfonate]	–	–	–	–	218 to 220
COc1cc(OC)c2c(=O)[nH]c(-c3ccc(OCCO)c(-c4ccccc4S(C)(=O)=O)n3)nc2c1 [Example 30, 2-(5-(2-Hydroxyethoxy)-6-(2-(methylsulfonyl)phenyl)pyridin-2-yl)-5,7-dimethoxyquinazolin-4(3H)-one]	–	Active	–	–	92 to 93

From patent US9765039B2, “Biaryl derivatives as bromodomain inhibitors” (Zenith Epigenetics Ltd., priority 2012, dated 2017)
